The test addresses T1, hGMF-β (human glia maturation factor-β) (Homo sapiens, UniProt P60983).
T1 construct: gene GMFB; amine-coupled to CM5 chip
The experiment in a line: SPR (Biacore T200), GMF-β immobilised on CM5 chip, […] fit. The format is binding. A general note: In SPR one partner is held on a chip, and binding of the other changes the refractive index at the surface.

Data on one compound can be found in PMC7051966, “Substrate Specific Inhibitor Designed against the Immunomodulator GMF-beta Reversed the Experimental Autoimmune Encephalomyelitis” (Scientific Reports, 2020).

T1 sequence (P60983 2-142): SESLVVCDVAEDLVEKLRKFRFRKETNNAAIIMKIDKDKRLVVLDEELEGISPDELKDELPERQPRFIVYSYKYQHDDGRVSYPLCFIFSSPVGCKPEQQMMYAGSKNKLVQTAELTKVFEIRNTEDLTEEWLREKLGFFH

As for `OCc1cccc2[nH]ncc12` [II, 1-H-indazole-4yl methanol], the Kd – broadly, the constant that tells how readily two partners part at equilibrium – is 20 µM.
